Data published in patent publication US11672792B2, “Topical formulations comprising montelukast and combinations with mussel adhesive proteins” (ENLITISA (SHANGHAI) PHARMACEUTICAL CO., LTD, priority 2017, dated 2023).

System: carrageenan-induced acute inflammation in subcutaneous air pouch
Assay: Air Pouch Model II (Example 2)
Assay type: in vivo, mice
Method: In Table 6, “Dex” is an abbreviation for dexamethasone and “Dopamine” is a 4 mg/mL aqueous solution of dopamine hydrochloride (Shanghai Aladdin Bio-Chem Technology Co., Ltd., Shanghai, China).
The histological specimens were analysed and an inflammation score, an activity score and a fibroplastic proliferation score were estimated as in Example 1 above and are tabulated in Table 9 below.

[1] = Dex 400 μg, Dopamine 2 mg, MAP 250 μg, Mon 100 μg
[2] = doses/mouse: Dex 400 μg, Dopamine 2 mg, MAP 250 μg, Mon 100 μg

Cl.NCCc1ccc(O)c(O)c1 [Dopamine, dopamine hydrochloride]
Activity score [1]: 1.67
Edema Score [1]: 2.33
Fibroplastic proliferation score [1]: 0.00
IFN-γ in exudate (ELISA) [1]: 5153.02 ± 5773.45
IL-6 in exudate (ELISA) [1]: 1740.11 ± 765.02
Inflammation score [1]: 2.00
Leukocyte count in exudate [1]: 1.91e+06 mL⁻¹
Lymphocyte count in exudate [1]: 50000 mL⁻¹
Monocyte count in exudate [1]: 1.58e+06 mL⁻¹
Neutrophil count in exudate [1]: 190000 mL⁻¹
Sum (of histology scores) [1]: 6.00
Exudate volume [2]: 2.93 ± 0.06 mL
Pouch Wall Weight [2]: 0.44 ± 0.07 g
pouch wall fibrous tissue proliferation (in words) (histology): no fibrous tissue proliferation
pouch wall inflammatory / lymph cell infiltration (in words) (histology): a lot of
pouch wall interstitial edema (in words) (histology): mild to moderate
